biological target: P70S6K (T412E mutant) (Homo sapiens (Human), UniProt P23443, T412E); experiment: P70S6K enzyme assay; format: biochemical; conditions: 3 nM P70S6K T412E mutant, 24 μM ATP, 1 μM FITC-AHA-AKRRRLSSLRA-OH substrate peptide, 90 min at 25° C.
Procedure: The IC50 values reported for the compounds in the Experimental section were derived from the following protocol for the p70S6K enzyme assay.
P70S6K inhibitor compounds were diluted and plated in 96 well plates. A reaction mixture including the following components was then added to the compound plate to initiate the enzyme reaction; P70S6K (3 nM, T412E mutant, Millipore) was mixed with 24 μM ATP in an assay buffer containing 100 mM Hepes (pH 7.5), 5 mM MgCl2, 1 mM DTT, 0.015% Brij and 1 μM of the substrate peptide FITC-AHA-AKRRRLSSLRA-OH (derived from the S6 ribosomal protein sequence, FITC=fluorescein isothiocyanate, AHA=6-aminohexanoic acid). The reaction was incubated for 90 min at 25° C., before the addition of 10 mM EDTA to stop the reaction. The proportion of substrate and product (phosphorylated) peptide was analysed on a Caliper Life Sciences Lab Chip 3000, using a pressure of −1.4 psi, and upstream and downstream voltages of −3000 and −700 respectively. Product peaks were resolved before substrate peaks on the resulting chromatograms.

P70S6K (T412E mutant), sequence (P23443 whole entry T412E): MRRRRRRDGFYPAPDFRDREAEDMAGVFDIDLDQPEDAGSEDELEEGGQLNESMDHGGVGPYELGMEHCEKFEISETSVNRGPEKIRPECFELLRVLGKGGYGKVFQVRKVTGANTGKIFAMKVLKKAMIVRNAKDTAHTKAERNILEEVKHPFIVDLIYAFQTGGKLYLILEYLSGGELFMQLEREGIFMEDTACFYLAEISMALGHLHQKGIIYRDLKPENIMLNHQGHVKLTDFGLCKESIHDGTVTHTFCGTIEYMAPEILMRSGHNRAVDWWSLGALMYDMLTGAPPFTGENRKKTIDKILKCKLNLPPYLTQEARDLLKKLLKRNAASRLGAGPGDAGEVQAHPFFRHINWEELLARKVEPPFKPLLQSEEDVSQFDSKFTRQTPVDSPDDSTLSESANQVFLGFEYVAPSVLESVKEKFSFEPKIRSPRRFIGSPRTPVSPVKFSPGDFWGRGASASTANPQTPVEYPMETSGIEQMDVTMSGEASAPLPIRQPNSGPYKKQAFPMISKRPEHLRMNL

Compared with Nc1ncnc(N2CCN(C(CN3CCCCC3)c3ccc(C(F)(F)F)cc3)CC2)c1-c1ccc(F)cc1 (stereo not shown) [Example 12, 5-(4-Fluoro-phenyl)-6-{4-[2-piperidin-1-yl-1-(4-trifluoromethyl-phenyl)-ethyl]-piperazin-1-yl}-pyrimidin-4-ylamine], Nc1ncnc(N2CCN(C(CN3CCCC3)c3ccc(F)cc3)CC2)c1-c1ccc(F)cc1 (stereo in doubt) [Example 82, (R)5-(4-Fluorophenyl)-6{4-[1-(4-fluorophenyl)-2-pyrrolidin-1-yl-ethyl]-piperazin-1-yl}-pyrimidin-4-ylamine] is 1.6-fold higher in IC50: 18 nM for the first, 29 nM for the second.

Compared with Cn1cc(-c2c(N)ncnc2N2CCN([C@H](CN)c3ccc(C(F)(F)F)cc3)CC2)cn1 [Example 41, 6-{4-[(S)-2-Amino-1-(4-trifluoromethyl-phenyl)-ethyl]-piperazin-1-yl}-5-(1-methyl-1H-pyrazol-4-yl)-pyrimidin-4-ylamine], Cn1ccc(-c2c(N)ncnc2N2CCN(C(CN)c3ccc(C(F)(F)F)cc3)CC2)n1 (stereo not shown) [Example 43, 6-{4-[2-Amino-1-(4-trifluoromethyl-phenyl)-ethyl]-piperazin-1-yl}-5-(1-methyl-1H-pyrazol-3-yl)-pyrimidin-4-ylamine] is 7-fold higher in IC50: 14 nM for the first, 98 nM for the second. The first is the more potent here.

First: NC[C@@H](c1ccc(C(F)(F)F)cc1)C1CCN(c2ncnc(N)c2-c2ccc(F)cc2)CC1 [Example 54, 6-{4-[(R)-2-Amino-1-(4-trifluoromethyl-phenyl)-ethyl]-piperidin-1-yl}-5-(4-fluoro-phenyl)-pyrimidin-4-ylamine]
Second: Cn1cc(-c2c(N)ncnc2N2CCC(C(CN)c3ccc(C(F)(F)F)cc3)CC2)cn1 (stereo not shown) [Example 58, 6-(4-(2-amino-1-(4-(trifluoromethyl)phenyl)ethyl)piperidin-1-yl)-5-(1-methyl-1H-pyrazol-4-yl)pyrimidin-4-amine]
The IC50 of the first is 6.9-fold lower: 4.5 nM for the first, 31 nM for the second. The first is the more potent here.

N#CC(c1cccc(C(F)(F)F)c1)N1CCN(c2ncnc(N)c2Br)CC1 (stereo not shown) [Example 166, [4-(6-Amino-5-bromo-pyrimidin-4-yl)-piperazin-1-yl]-(3-trifluoromethyl-phenyl)-acetonitrile] and Nc1ncnc(N2CCN(C(CN3CCCCC3)c3cccc(C(F)(F)F)c3)CC2)c1Br (stereo not shown) [Example 70, 5-Bromo-6{4-[1-(3-trifluoromethyl-phenyl)-2-piperidin-1-yl-ethyl]-piperazin-1-yl}-pyrimidin-4-ylamine] cannot be ordered by IC50: 6100 nM for the first, over 1000 nM for the second.

Going from C[C@@H](c1ccccc1)[C@H](CN)N1CCN(c2ncnc(N)c2-c2ccc(F)cc2)CC1 [Example 172, 6-[4-((1R,2S)-1-Aminomethyl-2-phenyl-propyl)-piperazin-1-yl]-5-(4-fluoro-phenyl)-pyrimidin-4-ylamine] to NCC(c1ccc(C(F)(F)F)nc1)N1CCN(c2ncnc(N)c2-c2ccc(F)cc2)CC1 (stereo not shown) [Example 194, 6-{4-[2-Amino-1-(6-trifluoromethyl-pyridin-3-yl)-ethyl]-piperazin-1-yl}-5-(4-fluoro-phenyl)-pyrimidin-4-ylamine], the IC50 falls from 280 nM to 9.8 nM (29-fold).

Compared with COC(=O)Cn1cc(-c2c(N)ncnc2N2CCN(C(CN3CCC3)c3cccc(C#N)c3)CC2)cn1 (stereo not shown) [Example 130, [4-(4-Amino-6-{4-[2-azetidin-1-yl-1-(3-cyano-phenyl)-ethyl]-piperazin-1-yl}-pyrimidin-5-yl)-pyrazol-1-yl]-acetic acid methyl ester], CS(=O)(=O)c1ccc([C@H](CN2CCC2)N2CCN(c3ncnc(N)c3-c3cn[nH]c3)CC2)cc1 [Example 93, 6-{4-[(R)-2-Azetidin-1-yl-1-(4-methanesulfonyl-phenyl)-ethyl]-piperazin-1-yl}-5-(1H-pyrazol-4-yl)-pyrimidin-4-ylamine] is lower in IC50: over 100000 nM for the first, 4300 nM for the second. The second is the more potent here.

Compared with Nc1ncnc(N2CCN(C(CN3CCC3)c3cccc(C(F)(F)F)c3F)CC2)c1-c1cn[nH]c1 (stereo not shown) [Example 99, 6-{4-[2-Azetidin-1-yl-1-(2-fluoro-3-trifluoromethyl-phenyl)-ethyl]-piperazin-1-yl}-5-(1H-pyrazol-4-yl)-pyrimidin-4-ylamine], Nc1ncnc(N2CCN(C(CN3CCC3)c3cccc(C(F)(F)F)c3Cl)CC2)c1-c1cn[nH]c1 (stereo not shown) [Example 134, 6-{4-[2-Azetidin-1-yl-1-(2-chloro-3-trifluoromethyl-phenyl)-ethyl]-piperazin-1-yl}-5-(1H-pyrazol-4-yl)-pyrimidin-4-ylamine] is 2.2-fold lower in IC50: 670 nM for the first, 300 nM for the second.

Compared with Nc1ncnc(N2CCC(C(NC3CCCC3)c3ccc(F)cc3)CC2)c1-c1ccc(F)cc1 (stereo not shown) [Example 145, 6-(4-((cyclopentylamino)(4-fluorophenyl)methyl)piperidin-1-yl)-5-(4-fluorophenyl)pyrimidin-4-amine], Nc1ncnc(N2CCC(C(O)c3ccc(Cl)cc3)CC2)c1-c1ccc(F)cc1 (stereo not shown) [Example 138] is 48-fold lower in IC50: 120 nM for the first, 2.5 nM for the second. The second is the more potent here.

First: Nc1ncnc(N2CCN(C(CN3CCC3)c3ccc(Cl)c(Cl)c3)CC2)c1-c1ccc(N2CCNCC2)nc1 (stereo not shown) [Example 133, 6-{4-[2-Azetidin-1-yl-1-(3,4-dichloro-phenyl)-ethyl]-piperazin-1-yl}-5-(6-piperazin-1-yl-pyridin-3-yl)-pyrimidin-4-ylamine]
Second: Nc1ncnc(N2CCN(C(CN3CCC3)c3ccc(F)c(C(F)(F)F)c3)CC2)c1-c1cn[nH]c1 (stereo not shown) [Example 101, 6-{4-[2-Azetidin-1-yl-1-(4-fluoro-3-trifluoromethyl-phenyl)-ethyl]-piperazin-1-yl}-5-(1H-pyrazol-4-yl)-pyrimidin-4-ylamine]
The IC50 of the first is higher: over 100000 nM for the first, 3800 nM for the second.

Compared with Nc1ncnc(N2CCC(Cc3ccc(Cl)cc3)CC2)c1-c1ccc(F)cc1 [Example 49, 5-(4-Fluorophenyl)-6{4-(4-chlorobenzyl)-piperidin-1-yl}pyrimidin-4-amine], N#CC(c1ccc(Cl)c(F)c1)N1CCN(c2ncnc(N)c2-c2ccc(F)cc2)CC1 (stereo not shown) [Example 164, {4-[6-Amino-5-(4-fluoro-phenyl)-pyrimidin-4-yl]-piperazin-1-yl}-(4-chloro-3-fluoro-phenyl)-acetonitrile] is 2.8-fold higher in IC50: 16 nM for the first, 44 nM for the second.

Going from Nc1ncnc(N2CCC(N)(CNC(=O)c3ccc(F)cc3F)CC2)c1-c1ccc(F)cc1 [Example 208, N-{4-Amino-1-[6-amino-5-(4-fluoro-phenyl)-pyrimidin-4-yl]-piperidin-4-ylmethyl}-2,4-difluoro-benzamide] to COc1ccc(-c2c(N)ncnc2N2CCC(N)(CNC(=O)c3ccc(F)cc3F)C2)cn1 (stereo not shown) [Example 201, N-{3-Amino-1-[6-amino-5-(6-methoxy-pyridin-3-yl)-pyrimidin-4-yl]-pyrrolidin-3-ylmethyl}-2,4-difluoro-benzamide], the IC50 falls from 46 nM to 9.5 nM (4.8-fold).

First: COC[C@H](NC(=O)C1(N)CCN(c2ncnc(N)c2-c2cn[nH]c2)CC1)c1ccc(Cl)cc1 [Example 240, 4-Amino-1-[6-amino-5-(1H-pyrazol-4-yl)-pyrimidin-4-yl]-piperidine-4-carboxylic acid [(R)-1-(4-chloro-phenyl)-2-methoxy-ethyl]-amide]
Second: Cc1ccc([C@H](CCO)NC(=O)C2(N)CCN(c3ncnc(N)c3Cl)CC2)cc1 [Example 237, 4-Amino-1-(6-amino-5-chloro-pyrimidin-4-yl)-piperidine-4-carboxylic acid ((S)-3-hydroxy-1-p-tolyl-propyl)-amide]
The IC50 of the first is 8.6-fold lower: 100 nM for the first, 860 nM for the second. The first is the more potent here.

First: NCC(c1ccc(C(F)(F)F)cc1)N1CCN(c2ncnc(N)c2C2=CCCCC2)CC1 (stereo not shown) [Example 24, 6-(4-(2-amino-1-(4-(trifluoromethyl)phenyl)ethyl)piperazin-1-yl)-5-(cyclohex-1-en-1-yl)pyrimidin-4-amine]
Second: N#Cc1c(N)ncnc1N1CCN(C(CN)c2ccc(C(F)(F)F)cc2)CC1 (stereo not shown) [Example 36, 4-Amino-6-{4-[2-amino-1-(4-trifluoromethyl-phenyl)-ethyl]-piperazin-1-yl}-pyrimidine-5-carbonitrile]
The IC50 of the first is 2.6-fold lower: 5.3 nM for the first, 14 nM for the second.

First: Cn1ccc(-c2c(N)ncnc2N2CCN(C(CNC(C)(C)C(C)(C)O)c3ccc(C(F)(F)F)cc3)CC2)n1 (stereo not shown) [Example 44, 3-[2-{4-[6-Amino-5-(1-methyl-1H-pyrazol-3-yl)-pyrimidin-4-yl]-piperazin-1-yl}-2-(4-trifluoromethyl-phenyl)-ethylamino]-2,3-dimethyl-butan-2-ol]
Second: CN(C)CC(c1ccc(C(F)(F)F)cc1)N1CCN(c2ncnc(N)c2-c2ccc(C(=O)O)cc2)CC1 (stereo not shown) [Example 26, 4-(4-amino-6-(4-(2-(dimethylamino)-1-(4-(trifluoromethyl)phenyl)ethyl)piperazin-1-yl)pyrimidin-5-yl)benzoic acid]
The IC50 of the first is 3.3-fold higher: 150 nM for the first, 45 nM for the second.

Going from NCC(c1ccc(C(F)(F)F)cc1)N1CCN(c2ncnc(N)c2OCC(F)(F)F)CC1 (stereo not shown) [Example 33, 6-(4-(2-amino-1-(4-(trifluoromethyl)phenyl)ethyl)piperazin-1-yl)-5-(2,2,2-trifluoroethoxy)pyrimidin-4-amine] to COc1ccc(C(C#N)N2CCN(c3ncnc(N)c3-c3ccc(F)cc3)CC2)cn1 (stereo not shown) [Example 182, 2-(4-(6-amino-5-(4-fluorophenyl)pyrimidin-4-yl)piperazin-1-yl)-2-(6-methoxypyridin-3-yl)acetonitrile], the IC50 rises from 48.5 nM to 220 nM (4.5-fold).

COC(=O)c1ccc(C(CN2CCC2)N2CCN(c3ncnc(N)c3-c3ccc(F)cc3)CC2)cc1 (stereo not shown) [Example 96, 4-(1-{4-[6-Amino-5-(4-fluoro-phenyl)-pyrimidin-4-yl]-piperazin-1-yl}-2-azetidin-1-yl-ethyl)-benzoic acid methyl ester] gave an IC50 of 140 nM.

Reference: US9321760B2 (Merck Patent GmbH, priority 2011, dated 2016)
